# Laboratory results: patent US11358953B2, “Functionalized peptides as antiviral agents” (ENANTA PHARMACEUTICALS, INC., priority 2020, dated 2022)
# pIC50: −log10 of the molar value.
# Target: SARS-CoV-2 3CL-protease (Severe acute respiratory syndrome coronavirus 2 (2019-nCoV) (SARS-CoV-2), UniProt P0DTD1)
# Experiment: SARS-CoV-2 3C-like (3CL) protease fluorescence assay (FRET)
# Type: biochemical
# Conditions: recombinant SARS-CoV-2 3CL-protease 10 nM, 30 min preincubation at RT, substrate 40 μM, duplicate
row,Compound,pIC50
1,"CC1(C)C2CN(C(=O)c3cc4c(OC(F)F)cccc4[nH]3)[C@H](C(=O)N[C@H](C#N)C[C@@H]3CCNC3=O)C21 (stereo in doubt) [Ex11, (1S,2S,5R)—N—((S)-1-cyano-2-((S)-2-oxopyrrolidin-3-yl)ethyl)-3-(4-(difluoromethoxy)-1H-indole-2-carbonyl)-6,6-dimethyl-3-azabicyclo[3.1.0]hexane-2-carboxamide]",6.00 to 7.00
2,"COc1cccc2[nH]c(C(=O)N3C[C@@H]4CCC[C@@H]4[C@H]3C(=O)N[C@@H](C[C@@H]3CCNC3=O)C(=O)CCl)cc12 [Ex1, (1S,3aR,6aS)—N—((S)-4-chloro-3-oxo-1-((S)-2-oxopyrrolidin-3-yl)butan-2-yl)-2-(4-methoxy-1H-indole-2-carbonyl)octahydrocyclopenta[c]pyrrole-1-carboxamide]",6.00 to 7.00
3,"COc1cccc2[nH]c(C(=O)N3C[C@@H]4CCC[C@@H]4[C@H]3C(=O)N[C@@H](C[C@@H]3CCNC3=O)C(=O)COC(=O)c3c(Cl)cccc3Cl)cc12 [Ex2, (S)-3-((1S,3aR,6aS)-2-(4-methoxy-1H-indole-2-carbonyl)octahydrocyclopenta[c]pyrrole-1-carboxamido)-2-oxo-4-((S)-2-oxopyrrolidin-3-yl)butyl 2,6-dichlorobenzoate]",> 7.00
4,"N#C[C@H](C[C@@H]1CCNC1=O)NC(=O)[C@@H]1[C@H]2CCC[C@H]2CN1C(=O)c1cc2c(OC(F)F)cccc2[nH]1 [Ex3, (1S,3aR,6aS)—N—((S)-1-cyano-2-((S)-2-oxopyrrolidin-3-yl)ethyl)-2-(4-(difluoromethoxy)-1H-indole-2-carbonyl)octahydrocyclopenta[c]pyrrole-1-carboxamide]",6.00 to 7.00
5,"O=C[C@H](C[C@@H]1CCNC1=O)NC(=O)[C@@H]1[C@H]2CCC[C@H]2CN1C(=O)c1cc2c(OC(F)F)cccc2[nH]1 [Ex5, (1S,3aR,6aS)-2-(4-(difluoromethoxy)-1H-indole-2-carbonyl)-N—((S)-1-oxo-3-((S)-2-oxopyrrolidin-3-yl)propan-2-yl)octahydrocyclopenta[c]pyrrole-1-carboxamide]",> 7.00
6,"COc1cccc2[nH]c(C(=O)N3C[C@@H]4CCC[C@@H]4[C@H]3C(=O)N[C@H](C=O)C[C@@H]3CCNC3=O)cc12 [Ex6, (1S,3aR,6aS)-2-(4-methoxy-1H-indole-2-carbonyl)-N—((S)-1-oxo-3-((S)-2-oxopyrrolidin-3-yl)propan-2-yl)octahydrocyclopenta[c]pyrrole-1-carboxamide]",> 7.00
7,"COc1cccc2[nH]c(C(=O)N3C[C@@H]4CCC[C@@H]4[C@H]3C(=O)N[C@H](C#N)C[C@@H]3CCCNC3=O)cc12 [Ex7, (1S,3aR,6aS)—N—((S)-1-cyano-2-((S)-2-oxopiperidin-3-yl)ethyl)-2-(4-methoxy-1H-indole-2-carbonyl)octahydrocyclopenta[c]pyrrole-1-carboxamide]",> 7.00
8,"O=C(NC1CCCCC1)C(=O)[C@H](C[C@@H]1CCNC1=O)NC(=O)[C@@H]1[C@H]2CCC[C@H]2CN1C(=O)c1cc2c(OC(F)F)cccc2[nH]1 [Ex8, (1S,3aR,6aS)—N—((S)-4-(cyclohexylamino)-3,4-dioxo-1-((S)-2-oxopyrrolidin-3-yl)butan-2-yl)-2-(4-(difluoromethoxy)-1H-indole-2-carbonyl)octahydrocyclopenta[c]pyrrole-1-carboxamide]",> 7.00
9,"COc1cccc2[nH]c(C(=O)N3C[C@@H]4CCC[C@@H]4[C@H]3C(=O)N[C@@H](C[C@@H]3CCNC3=O)C(=O)C(=O)NC3CCCCC3)cc12 [Ex9, (1S,3aR,6aS)—N—((S)-4-(cyclohexylamino)-3,4-dioxo-1-((S)-2-oxopyrrolidin-3-yl)butan-2-yl)-2-(4-methoxy-1H-indole-2-carbonyl)octahydrocyclopenta[c]pyrrole-1-carboxamide]",> 7.00
10,"COc1cccc2[nH]c(C(=O)N3C[C@@H]4CCC[C@@H]4[C@H]3C(=O)N[C@@H](C[C@@H]3CCNC3=O)C(=O)CO)cc12 [Ex10, (1S,3aR,6aS)—N—((S)-4-hydroxy-3-oxo-1-((S)-2-oxopyrrolidin-3-yl)butan-2-yl)-2-(4-methoxy-1H-indole-2-carbonyl)octahydrocyclopenta[c]pyrrole-1-carboxamide]",6.00 to 7.00
